The results in this text go back to US8216595B2 (priority 2007, dated 2012).

Holding throughout (conditions): mouse, in vivo
For experiment [1], the system named is HBsAg (S-protein). Also noted: species or system C57BL/6 female mice.
Experiment [2] deals with preS antigen. Also noted: species or system C57BL/6 female mice.
In a further experiment the test system is HBsAg.
The subject of experiment [3] is HBsAg (S-protein). Also noted: species or system C57BL/6 female mice. This is another data set of the same source.
Experiment [4] relates to preS antigen. Also noted: species or system C57BL/6 female mice. The source holds these as a separate data set.
In another experiment the test system is HA antigen. Set-up: species or system C57BL/6 female mice.

Where two headings read alike, the source gives them in different places.

`CCCCCCCCCCCCCCCC(=O)N[C@@H](CSC[C@@H](COC(=O)CCCCCCCCCCCCCCC)OC(=O)CCCCCCCCCCCCCCC)C(=O)N[C@@H](CO)C(=O)N[C@@H](CCCCN)C(=O)N[C@@H](CCCCN)C(=O)N[C@@H](CCCCN)C(=O)N[C@@H](CCCCN)C(=O)O` (racemic) [Pam3Cys-SKKKK, N-palmitoyl-S-[2,3-bis(palmitoyloxy)-(2RS)-propyl]-[R]-cystein-SKKKK]: the HBsAg antibody titer in the experiment on HBsAg (S-protein) [1] is given as 6.5 × 10^5. Besides, the preS antibody titer is 1.3 × 10^5 in the experiment on preS antigen [2] and 6.2 × 10^5 with preS antigen [4]. Further, the “IgG2a/IgG1 (%)” value was 17.4% in the experiment on HBsAg and 8.9% in the experiment on HBsAg (S-protein) [3]. Besides, the “IgG2b/IgG1 (%)” value in the experiment with HBsAg is recorded as 159.4%; with HBsAg (S-protein) [3], 153.9%. In addition, the HA antibody titer with HA antigen is 6.8 × 10^5.
Consider FSL-1, for which the HBsAg antibody titer in the experiment on HBsAg (S-protein) [1] is given as 4.4 × 10^5. Moreover, the preS antibody titer in the experiment with preS antigen [2] was 1.4 × 10^5. In addition, in the experiment on HBsAg, the “IgG2a/IgG1 (%)” value amounted to 9.3% and the “IgG2b/IgG1 (%)” value was 122.5%.
For “polyinosinic:polycytidylic acid [Poly I:C]”, in the experiment with HBsAg (S-protein) [1], the HBsAg antibody titer is listed as 6.3 × 10^5. Further, the preS antibody titer with preS antigen [2] is 2.3 × 10^5; with preS antigen [4], 6.5 × 10^5. Besides, the “IgG2a/IgG1 (%)” value with HBsAg is listed as 8.04%; in the experiment with HBsAg (S-protein) [3], 9.1%. Moreover, the “IgG2b/IgG1 (%)” value in the experiment with HBsAg amounted to 89.05%; in the experiment on HBsAg (S-protein) [3], 66.4%. Moreover, the HA antibody titer in the experiment on HA antigen is 8.6 × 10^5.
